Several values for one entry are separate records, joined by “and”; a condition that tells them apart may be missing. Identical values can stand only once.
Experiments:
Assay type in all cases: cell-based
GPR139 [1] = biological target: T1, GPR139 (Homo sapiens, UniProt Q6DWJ6); experiment: Ca2+ mobilization assay, agonist mode, stable GPR139-CHOk1 cell line; conditions: for EC50 / Emax: Supplementary Table 2, mean ± SEM; for EC50: read-out: pEC50 Ca2+ (converted); for Emax: normalized to Lundbeck Cmp 1a, read-out: Emax (%) Ca2+
T1 sequence (Q6DWJ6 1-353): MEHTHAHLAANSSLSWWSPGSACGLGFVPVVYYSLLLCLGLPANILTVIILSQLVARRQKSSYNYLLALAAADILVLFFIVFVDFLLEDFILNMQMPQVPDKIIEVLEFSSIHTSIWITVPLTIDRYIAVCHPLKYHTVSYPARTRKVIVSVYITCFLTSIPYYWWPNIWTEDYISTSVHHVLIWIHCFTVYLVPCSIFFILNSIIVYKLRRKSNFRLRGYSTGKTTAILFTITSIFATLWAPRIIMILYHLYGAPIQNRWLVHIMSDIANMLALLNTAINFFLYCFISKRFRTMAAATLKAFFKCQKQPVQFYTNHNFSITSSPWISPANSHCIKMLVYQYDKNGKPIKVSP
Outline: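 Agonist activity of compounds is assessed in stably transfected CHO-K1 cells using the calcium dye Fluo-4 at 37 °C in HEPES-buffered HBSS (pH 7.4). Efficacy is expressed relative to the reference agonist Lundbeck Cmp 1a, set as 100%.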

[2] = biological target: T2, human muscarinic acetylcholine M1 receptor (M1R) (Homo sapiens, UniProt P11229); experiment: Ca2+ mobilization counter-screen in M1R-CHOk1 cells;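 further: 10 µM test compound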
T2 sequence (P11229 1-460): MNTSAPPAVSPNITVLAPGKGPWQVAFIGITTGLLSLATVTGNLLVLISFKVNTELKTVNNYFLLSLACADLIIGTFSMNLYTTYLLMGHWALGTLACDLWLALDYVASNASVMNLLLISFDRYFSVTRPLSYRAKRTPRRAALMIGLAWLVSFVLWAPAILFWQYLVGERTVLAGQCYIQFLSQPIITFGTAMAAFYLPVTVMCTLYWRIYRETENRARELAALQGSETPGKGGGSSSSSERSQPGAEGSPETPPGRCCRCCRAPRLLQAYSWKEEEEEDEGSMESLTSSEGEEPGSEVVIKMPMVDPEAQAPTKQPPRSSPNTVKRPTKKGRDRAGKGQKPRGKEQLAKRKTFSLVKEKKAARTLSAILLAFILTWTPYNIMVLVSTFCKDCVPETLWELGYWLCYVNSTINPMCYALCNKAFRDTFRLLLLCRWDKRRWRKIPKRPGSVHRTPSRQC
Outline: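 Intracellular calcium flux was measured by fluorescence (485 nm excitation, 525 nm emission) at 37 °C after automated compound addition following baseline, with final DMSO ≤0.3%. CHO-K1 cells stably expressing human M1R were plated 20–24 h beforehand. Cells were dye-loaded with 2 µM Fluo-4 AM for 1 h in pH 7.4 HEPES/HBSS containing 2.5 mM probenecid.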

GPR139 [3] = biological target: T1, GPR139; experiment: Ca2+ mobilization assay, antagonist mode (EC80 800 nM Lundbeck Cmp 1a after 20 min preincubation), GPR139-CHOk1
Outline: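 Antagonist mode: 800 nM (EC80) reference agonist Lundbeck Cmp 1a added following 20 min pre-incubation with 10 µM compound. GPR139-CHOk1 cells, Fluo-4 dye, probenecid-containing HEPES buffer pH 7.4; intracellular Ca2+ measured at 37 °C (ex 485, em 525 nm).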

[4] = Agonist mode, individual replicates (Supplementary Figure 4)
[5] = log [Compound] M = -4.5, individual replicate columns
[6] = log [Compound] M = -5.0, individual replicate columns
[7] = log [Compound] M = -5.5, individual replicate columns
[8] = log [Compound] M = -6.0, individual replicate columns
[9] = log [Compound] M = -6.5, individual replicate columns
[10] = log [Compound] M = -7.0, individual replicate columns
[11] = log [Compound] M = -7.5, individual replicate columns
[12] = log [Compound] M = -8.0, individual replicate columns
[13] = log [Compound] M = -8.5, individual replicate columns
[14] = log [Compound] M = -9.0, individual replicate columns
[15] = individual replicates (Supplementary Figure 5)
[16] = individual replicates (Supplementary Figure 4)

`COCC(NC(=O)NC(C)c1ccc(F)cc1F)c1ccccc1` (centres unmarked) [Compound 6, COCC(NC(=O)NC(C)C=1C=CC(F)=CC1F)C=2C=CC=CC2] was tested, and the “Ca2+ signal (% of Cmp 1a)” value (GPR139 [1]; 0.1 µM, individual replicates (Supplementary Figure 3)) was -5.9 % of Cmp 1a and -10.9 % of Cmp 1a, the “Ca2+ signal (% of Cmp 1a)” value (GPR139 [1]; 1 µM, individual replicates (Supplementary Figure 3)) was 3.9 % of Cmp 1a and 9.9 % of Cmp 1a and the “Ca2+ signal (% of Cmp 1a)” value (GPR139 [1]; 10 µM, individual replicates (Supplementary Figure 3)) was 34.7 % of Cmp 1a and 32.7 % of Cmp 1a. For the same compound, the “activation of GPR139 at three concentrations” value (GPR139 [1]; 0.1, 1 and 10 µM, activity too low to reliably determine EC50) was “concentration-dependent activation of GPR139”, the “Ca2+ signal (% of Cmp 1a)” value (GPR139 [1]; Agonist mode, individual replicates (Supplementary Figure 1)) was 37 % of Cmp 1a and 42 % of Cmp 1a and 46 % of Cmp 1a and the “Ca2+ signal (% of Cmp 1a)” value (GPR139 [1]; primary screen, 10 µM compound, agonist mode, three columns = independent experiments) was 37 % of Cmp 1a and 42 % of Cmp 1a and 46 % of Cmp 1a. For the same compound, the “Ca2+ signal (% of Carbachol)” value ([2]; individual replicates (Supplementary Figure 2)) was -19 % of Carbachol and -0.753 % of Carbachol and the “Ca2+ signal (% of Cmp 1a)” value (GPR139 [3]; individual replicates (Supplementary Figure 1)) was 39.4931 % of Cmp 1a and 54.2036 % of Cmp 1a and 45.3276 % of Cmp 1a.
In the case of `Cc1csc(-c2nc(CC(=O)NC(C)c3ccccc3)no2)c1` (centres unmarked) [Compound 1.11, CC(C1=CC=CC=C1)NC(CC2=NOC(C3=CC(C)=CS3)=N2)=O], the “Ca2+ signal (% of Cmp 1a)” value (GPR139 [1]; [4]) is reported as 83 % of Cmp 1a and 63 % of Cmp 1a and 71 % of Cmp 1a, the EC50 (GPR139 [1]) is reported as 0.2 µM and the Emax (GPR139 [1]) is reported as 105 ± 10%. The “Ca2+ signal (% of Cmp 1a)” value (GPR139 [1]; [5]) was 119 % of Cmp 1a and 103 % of Cmp 1a and 72 % of Cmp 1a and 99 % of Cmp 1a, the “Ca2+ signal (% of Cmp 1a)” value (GPR139 [1]; [6]) was 117 % of Cmp 1a and 110 % of Cmp 1a and 94 % of Cmp 1a and 97 % of Cmp 1a and the “Ca2+ signal (% of Cmp 1a)” value (GPR139 [1]; [7]) was 109 % of Cmp 1a and 87 % of Cmp 1a and 67 % of Cmp 1a and 96 % of Cmp 1a. The “Ca2+ signal (% of Cmp 1a)” value (GPR139 [1]; [8]) was 94 % of Cmp 1a and 70 % of Cmp 1a and 59 % of Cmp 1a and 79 % of Cmp 1a, the “Ca2+ signal (% of Cmp 1a)” value (GPR139 [1]; [9]) was 69 % of Cmp 1a and 58 % of Cmp 1a and 32 % of Cmp 1a and 65 % of Cmp 1a and the “Ca2+ signal (% of Cmp 1a)” value (GPR139 [1]; [10]) was 58 % of Cmp 1a and 48 % of Cmp 1a and 20 % of Cmp 1a and 43 % of Cmp 1a. The “Ca2+ signal (% of Cmp 1a)” value (GPR139 [1]; [11]) was 38 % of Cmp 1a and -18 % of Cmp 1a and -19 % of Cmp 1a and 30 % of Cmp 1a, the “Ca2+ signal (% of Cmp 1a)” value (GPR139 [1]; [12]) was 31 % of Cmp 1a and 1.33 % of Cmp 1a and -4 % of Cmp 1a and 6.33 % of Cmp 1a and the “Ca2+ signal (% of Cmp 1a)” value (GPR139 [1]; [13]) was 6 % of Cmp 1a and 1.67 % of Cmp 1a and 4.67 % of Cmp 1a and 3.33 % of Cmp 1a. For the same compound, the “Ca2+ signal (% of Cmp 1a)” value (GPR139 [1]; [14]) was 10 % of Cmp 1a and 7 % of Cmp 1a and -2.67 % of Cmp 1a and 1.33 % of Cmp 1a, the “Ca2+ signal (% of Carbachol)” value [2, 15] was -8 % of Carbachol and 27 % of Carbachol and -10 % of Carbachol and the “Ca2+ signal (% of Cmp 1a)” value (GPR139 [3]; [16]) was 0 % of Cmp 1a and -3 % of Cmp 1a and -25 % of Cmp 1a.
With `CCn1nc(-c2nc(CC(=O)NC(C)c3ccccc3)no2)cc1C` (centres unmarked) [Compound 1.27, CCN1N=C(C2=NC(CC(NC(C3=CC=CC=C3)C)=O)=NO2)C=C1C] the “Ca2+ signal (% of Cmp 1a)” value (GPR139 [1]; [4]) was 81 % of Cmp 1a and 93 % of Cmp 1a and 60 % of Cmp 1a, the EC50 (GPR139 [1]) was 2 µM and the Emax (GPR139 [1]) was 96 ± 6%. The “Ca2+ signal (% of Cmp 1a)” value (GPR139 [1]; [5]) was 101 % of Cmp 1a and 107 % of Cmp 1a and 86 % of Cmp 1a, the “Ca2+ signal (% of Cmp 1a)” value (GPR139 [1]; [6]) was 91 % of Cmp 1a and 71 % of Cmp 1a and 89 % of Cmp 1a and the “Ca2+ signal (% of Cmp 1a)” value (GPR139 [1]; [7]) was 56 % of Cmp 1a and 61 % of Cmp 1a and 76 % of Cmp 1a. The “Ca2+ signal (% of Cmp 1a)” value (GPR139 [1]; [8]) was 25 % of Cmp 1a and 33 % of Cmp 1a and 48 % of Cmp 1a, the “Ca2+ signal (% of Cmp 1a)” value (GPR139 [1]; [9]) was 9 % of Cmp 1a and 7 % of Cmp 1a and 10 % of Cmp 1a and the “Ca2+ signal (% of Cmp 1a)” value (GPR139 [1]; [10]) was 4.22 % of Cmp 1a and -3 % of Cmp 1a and 6.42 % of Cmp 1a. For the same compound, the “Ca2+ signal (% of Cmp 1a)” value (GPR139 [1]; [11]) was 8 % of Cmp 1a and 2.12 % of Cmp 1a and -0.804 % of Cmp 1a, the “Ca2+ signal (% of Cmp 1a)” value (GPR139 [1]; [12]) was 0.271 % of Cmp 1a and 9 % of Cmp 1a and -0.437 % of Cmp 1a and the “Ca2+ signal (% of Cmp 1a)” value (GPR139 [1]; [13]) was -3 % of Cmp 1a and 2.65 % of Cmp 1a and 6.66 % of Cmp 1a. The “Ca2+ signal (% of Cmp 1a)” value (GPR139 [1]; [14]) was 4 % of Cmp 1a and -0.687 % of Cmp 1a and 5 % of Cmp 1a, the “Ca2+ signal (% of Carbachol)” value [2, 15] was -1.81 % of Carbachol and 1.46 % of Carbachol and 5 % of Carbachol and the “Ca2+ signal (% of Cmp 1a)” value (GPR139 [3]; [16]) was 24 % of Cmp 1a and -1.33 % of Cmp 1a and 22 % of Cmp 1a.
